Measured values as given in PubChem BioAssay (NCI).
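Values below derive from 48-hour exposures of cells grown in 96-well plates, with endpoints linearly interpolated between the two concentrations bracketing the appropriate inhibition level. The concentration for full growth arrest is given as TGI.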

What was measured:
Assay in all cases: NCI anticancer screen, dose series, 48 h
HCT-116 colon = tested on: HCT-116 colon
U251 CNS = tested on: U251 CNS
SK-MEL-2 melanoma = tested on: SK-MEL-2 melanoma
HT29 colon = tested on: HT29 colon
UACC-257 melanoma = tested on: UACC-257 melanoma
NCI-H226 lung = tested on: NCI-H226 lung
KM12 colon = tested on: KM12 colon
SK-MEL-5 melanoma = tested on: SK-MEL-5 melanoma
M14 melanoma = tested on: M14 melanoma
DU-145 prostate = tested on: DU-145 prostate
SK-OV-3 ovarian = tested on: SK-OV-3 ovarian
HOP-92 NSCLC = tested on: HOP-92 NSCLC
786-0 renal = tested on: 786-0 renal
NCI-H460 lung = tested on: NCI-H460 lung
MDA-MB-435 = tested on: MDA-MB-435
SF-268 CNS = tested on: SF-268 CNS
SK-MEL-28 melanoma = tested on: SK-MEL-28 melanoma
SNB-75 CNS = tested on: SNB-75 CNS
MDA-MB-231 breast = tested on: MDA-MB-231 breast
SNB-19 CNS = tested on: SNB-19 CNS
BT-549 breast = tested on: BT-549 breast
NCI-H23 lung = tested on: NCI-H23 lung
TK-10 renal = tested on: TK-10 renal
A498 renal = tested on: A498 renal
IGROV1 ovarian = tested on: IGROV1 ovarian
SW-620 colon = tested on: SW-620 colon
HOP-62 NSCLC = tested on: HOP-62 NSCLC
OVCAR-8 ovarian = tested on: OVCAR-8 ovarian
PC-3 prostate = tested on: PC-3 prostate
MCF7 breast = tested on: MCF7 breast
CCRF-CEM leukemia = tested on: CCRF-CEM leukemia
HS 578T breast = tested on: HS 578T breast
NCI/ADR-RES ovarian = tested on: NCI/ADR-RES ovarian
ACHN renal = tested on: ACHN renal
OVCAR-4 ovarian = tested on: OVCAR-4 ovarian
UO-31 renal = tested on: UO-31 renal
HCT-15 colon = tested on: HCT-15 colon
EKVX NSCLC = tested on: EKVX NSCLC
CAKI-1 renal = tested on: CAKI-1 renal
MDA-N = tested on: MDA-N
SF-295 CNS = tested on: SF-295 CNS
A549 NSCLC = tested on: A549 NSCLC
SF-539 CNS = tested on: SF-539 CNS
OVCAR-3 ovarian = tested on: OVCAR-3 ovarian
LOX IMVI melanoma = tested on: LOX IMVI melanoma
RPMI-8226 leukemia = tested on: RPMI-8226 leukemia
RXF 393 renal = tested on: RXF 393 renal
NCI-H522 lung = tested on: NCI-H522 lung
SN12C renal = tested on: SN12C renal
COLO 205 colon = tested on: COLO 205 colon
T-47D breast = tested on: T-47D breast
MALME-3M melanoma = tested on: MALME-3M melanoma
UACC-62 melanoma = tested on: UACC-62 melanoma
HCC-2998 colon = tested on: HCC-2998 colon
SR leukemia = tested on: SR leukemia
MOLT-4 leukemia = tested on: MOLT-4 leukemia
HL-60(TB) leukemia = tested on: HL-60(TB) leukemia
K-562 leukemia = tested on: K-562 leukemia
OVCAR-5 ovarian = tested on: OVCAR-5 ovarian

O=C1CSC(=S)N1c1ccc(F)cc1F
TGI (HCT-116 colon): > 100 µM | TGI (U251 CNS): > 100 µM | TGI (SK-MEL-2 melanoma): > 100 µM | TGI (HT29 colon): > 100 µM | TGI (UACC-257 melanoma): > 100 µM | TGI (NCI-H226 lung): > 100 µM | TGI (KM12 colon): > 100 µM | TGI (SK-MEL-5 melanoma): 54.6 µM | TGI (M14 melanoma): > 100 µM | TGI (DU-145 prostate): > 100 µM | TGI (SK-OV-3 ovarian): > 100 µM | TGI (HOP-92 NSCLC): > 100 µM | TGI (786-0 renal): > 100 µM | TGI (NCI-H460 lung): > 100 µM | TGI (MDA-MB-435): > 100 µM | TGI (SF-268 CNS): > 100 µM | TGI (SK-MEL-28 melanoma): > 100 µM | TGI (SNB-75 CNS): > 100 µM | TGI (MDA-MB-231 breast): > 100 µM | TGI (SNB-19 CNS): > 100 µM | TGI (BT-549 breast): > 100 µM | TGI (NCI-H23 lung): > 100 µM | TGI (TK-10 renal): > 100 µM | TGI (A498 renal): > 100 µM | TGI (IGROV1 ovarian): > 100 µM | TGI (SW-620 colon): > 100 µM | TGI (HOP-62 NSCLC): > 100 µM | TGI (OVCAR-8 ovarian): > 100 µM | TGI (PC-3 prostate): > 100 µM | TGI (MCF7 breast): 51.5 µM | TGI (CCRF-CEM leukemia): 76.4 µM | TGI (HS 578T breast): > 100 µM | TGI (NCI/ADR-RES ovarian): > 100 µM | TGI (ACHN renal): > 100 µM | TGI (OVCAR-4 ovarian): > 100 µM | TGI (UO-31 renal): > 100 µM | TGI (HCT-15 colon): > 100 µM | TGI (EKVX NSCLC): > 100 µM | TGI (CAKI-1 renal): > 100 µM | TGI (MDA-N): > 100 µM | TGI (SF-295 CNS): > 100 µM | TGI (A549 NSCLC): > 100 µM | TGI (SF-539 CNS): > 100 µM | TGI (OVCAR-3 ovarian): > 100 µM | TGI (LOX IMVI melanoma): > 100 µM | TGI (RPMI-8226 leukemia): 66.4 µM | TGI (RXF 393 renal): > 100 µM | TGI (NCI-H522 lung): 47.3 µM | TGI (SN12C renal): > 100 µM | TGI (COLO 205 colon): > 100 µM | TGI (T-47D breast): > 100 µM | TGI (MALME-3M melanoma): > 100 µM | TGI (UACC-62 melanoma): > 100 µM | TGI (HCC-2998 colon): > 100 µM

O=C(c1ccccn1)c1nnn2ccccc12
TGI (HCT-116 colon): > 100 µM | TGI (U251 CNS): > 100 µM | TGI (SK-MEL-2 melanoma): > 100 µM | TGI (HT29 colon): > 100 µM | TGI (UACC-257 melanoma): > 100 µM | TGI (NCI-H226 lung): > 100 µM | TGI (KM12 colon): > 100 µM | TGI (SK-MEL-5 melanoma): > 100 µM | TGI (M14 melanoma): > 100 µM | TGI (DU-145 prostate): > 100 µM | TGI (SR leukemia): > 100 µM | TGI (SK-OV-3 ovarian): > 100 µM | TGI (HOP-92 NSCLC): > 100 µM | TGI (786-0 renal): > 100 µM | TGI (NCI-H460 lung): > 100 µM | TGI (MDA-MB-435): > 100 µM | TGI (SF-268 CNS): > 100 µM | TGI (SK-MEL-28 melanoma): > 100 µM | TGI (SNB-75 CNS): > 100 µM | TGI (MDA-MB-231 breast): > 100 µM | TGI (SNB-19 CNS): > 100 µM | TGI (BT-549 breast): > 100 µM | TGI (NCI-H23 lung): > 100 µM | TGI (TK-10 renal): > 100 µM | TGI (A498 renal): > 100 µM | TGI (IGROV1 ovarian): > 100 µM | TGI (SW-620 colon): > 100 µM | TGI (HOP-62 NSCLC): > 100 µM | TGI (OVCAR-8 ovarian): > 100 µM | TGI (MOLT-4 leukemia): > 100 µM | TGI (PC-3 prostate): > 100 µM | TGI (MCF7 breast): > 100 µM | TGI (CCRF-CEM leukemia): > 100 µM | TGI (HS 578T breast): > 100 µM | TGI (ACHN renal): > 100 µM | TGI (HL-60(TB) leukemia): > 100 µM | TGI (OVCAR-4 ovarian): > 100 µM | TGI (HCT-15 colon): > 100 µM | TGI (EKVX NSCLC): > 100 µM | TGI (CAKI-1 renal): > 100 µM | TGI (MDA-N): > 100 µM | TGI (K-562 leukemia): > 100 µM | TGI (SF-295 CNS): > 100 µM | TGI (A549 NSCLC): > 100 µM | TGI (SF-539 CNS): > 100 µM | TGI (OVCAR-3 ovarian): > 100 µM | TGI (OVCAR-5 ovarian): > 100 µM | TGI (LOX IMVI melanoma): > 100 µM | TGI (RPMI-8226 leukemia): > 100 µM | TGI (NCI-H522 lung): > 100 µM | TGI (SN12C renal): > 100 µM | TGI (COLO 205 colon): > 100 µM | TGI (T-47D breast): > 100 µM | TGI (MALME-3M melanoma): > 100 µM | TGI (UACC-62 melanoma): > 100 µM | TGI (HCC-2998 colon): > 100 µM
